Laboratory results as given in patent publication US7868047B2, “Anti-inflammatory and psoriasis treatment and protein kinase inhibition by hydroxy stilbenes and novel stilbene derivatives and analogues” (Welichem Biotech Inc., priority 1999, dated 2011).
Where “and” joins values, the source holds several entries; their conditions need not be identical. Equal entries are not always repeated.

Experiments:
psoriasis = assay: 1% cream on volunteers with psoriasis; type: in vivo, human; settings: topical, once per day, vs control cream
Method: The biological activity of the compounds of this invention can be determined by measurement of the effect of the test compound in vivo because there is no animal model suitable for the diseases. The compounds were tested on volunteers. In these tests, representative compound of this invention, i.e., 3,5-dihydroxy-4-isopropylstilbene is active in reducing or eliminating symptoms of psoriasis and eczema.
A 1% cream of 3,5-dihydroxy-4-isopropylstilbene was prepared for tests on volunteers. Three volunteers, each with a long psoriasis history, were recruited for the tests. Neither of them was on any medication a month before the initiation of the test.
Volunteer 1, person, with scalp psoriasis for more than 15 years. They had used various conventional drugs and treatments, include, steroids, phototherapy and other medicine during the course of their illness. All of these treatments had no or very limited effect on this psoriasis.
Volunteer 2, person, with plaques on their back. They had used hydrocortisone before and stopped using it because of side effects.
The volunteers were treated once per day by applying the creams once per day on top of the affected area with the basic cream as the control (except for volunteer 3). […] The cream of the invention contained 1% 3,5-dihydroxy-4-isopropylstilbene. The control cream was identical except that it contained no 3,5-dihydroxy-4-isopropylstilbene. […]

eczema = assay: 1% cream on volunteer with eczema; type: in vivo, human; settings: topical, right side, control triamcinolone acetonide 0.5% left side
TPA-induced ear edema = TPA-induced ear edema model; type: in vivo, mouse; settings: 0.3% single topical, TPA 0.01%, ear thickness 6 hours after TPA
Method: Experiment: Three representative compounds, 5-(2-phenylethenyl)-2-1-propyl-1,3-benzenediol, as previously reported, a closely related stilbene derivative (WO 0142231) and compound 39B, a novel compound of the current invention, were assayed against the edema on female mice (Balb/c) aged 10-12 weeks, using 0.01% Calcitriol (a commercial standard) as a positive control. Phorbol-12-myristate-13-acetate (TPA) was used as the edema inducer. TPA and the test compounds were all dissolved in 100% ethanol and 20 μl applied on the right ear of the mouse with six mice per group. The TPA concentration used was 0.01% (w/v). Ear thickness was measured 6 hours after TPA treatment to determine if edema was decreased. In each experiment replicated groups of TPA treated mice were treated with either 5-(2-phenylethenyl)-2-1-propyl-1,3-benzenediol, Calcitriol, compound 39B or only ethanol, and the level of inhibition was obtained by measuring the thickness of the ear and expressing the difference in thickness of the treated ear from that of the ethanol treated ear, as a percentage.

DSS-induced IBD = assay: DSS (2%) IBD mouse model, preventive experiment; type: in vivo; settings: 500 mg/kg/day oral with 2% DSS, day 7
Method: To assess the in vivo efficacy for preventive and therapeutic activities of these compounds on IBD, two experiments were designed and tested using the dextran sulfate sodium (DSS) experimental mouse model for human IBD. For the preventive experiment, compounds 9A and 39B were simultaneously administrated orally with 2% DSS at the dose of 500 mg/kg/day. Vehicle alone and glucocorticoid (dexamethasone 20 mg/kg/day) were used as controls. At day 7, mice were sacrificed, examined for stool appearance, diarrhea and colon macroscopic damage including ulceration, inflammation and adhesion. Colon samples were also taken and fixed in 10% formalin for histological assessment of architecture, ulceration, inflammation and serosal damage.

[1] = system: acute colon inflammation induced by 5% DSS; assay: DSS (5%) acute colon inflammation mouse model, therapeutic experiment; type: in vivo; settings: for Bleeding score / Diarrheal score: day seven, mean ± SEM, n = 9, 1 = normal; for Bleeding score: 2 = bloody stool, 4 = gross bleeding; for Diarrheal score: 2 = loose stools, 4 = diarrhea
Description: To assess the in vivo efficacy for preventive and therapeutic activities of these compounds on IBD, two experiments were designed and tested using the dextran sulfate sodium (DSS) experimental mouse model for human IBD.
For the therapeutic experiment a further experiment was done to test different doses of 9A on severe, acute intestinal inflammation in mice induced by a high dose of DSS (5%). In this experiment, drug treatment started from day 3 post DSS induction when disease symptom was established. 9A (200 mg/kg or 100 mg/kg) was administered through oral […] once daily and a commercial drug, sulfasalazine (SASP, 100 mg/kg/day) was used as positive control. Experiment was terminated at day 7 and the efficacy was assessed.

human PBMC = assay: Proliferation of PHA-stimulated human PBMC (MTT); type: cell-based; settings: PHA-stimulated, MTT after 48 hours; read-out: IC50 against human PBMC proliferation
Method: (§1) (a). Effect on proliferation and IFN-γ production of human peripheral blood mononuclear cells (PBMC) stimulated by phytochemagglutinin (PHA).
(§2) Experiment: PBMC were cultured with PHA and cultured with titrated concentrations of compounds or solvent, or media alone using standard cell culture techniques. The MTT assay was performed after 48 hours of culture. Supernatants were collected after 48 hours of culture and levels of IFN-γ were assayed by ELISA.

IFN-γ = IFN-γ production by PHA-stimulated human PBMC (ELISA); type: cell-based; settings: PHA-stimulated human PBMC, supernatant after 48 hours, ELISA
Method: as §1, §2

[2] = system: human white blood cells (WBC); assay: Migration of human white blood cells induced by leukotriene B4 (agarose plate); type: cell-based; settings: for % Migration: towards LTB4, 5 h
Method: Experiment: WBC collected from donors was mixed with equal volume of 3% dextran (in 0.15M NaCl). The red blood cells were sedimented (45 minutes, room temperature) and removed. Any remaining red blood cells in the plasma were removed by adding 150 mM of Tris-NH4Cl. The leukocyte-rich plasma was washed twice in Hanks balanced salts solution containing 20 mM HEPES. The WBC was then transferred to RPMI-1640 medium and adjusted to a density of 5×10^7 cells/ml. An agarose plate assay system (Nelson et al. 1978) was used to measure the WBC migration. Briefly, a 0.8% agarose solution was prepared with complete RPMI-1640 cell culture medium. About 3.5 ml of this agarose solution was transferred to a glass slide before it solidified. Wells were made on the slide in a 3×6 array fashion (02 mm, inter-well distance 3 mm) once the agarose had solidified. LTB4 was dissolved in anhydrous ethanol to 104 ng/ml and further diluted with the RPMI-1640 medium to 10 ng/ml for the test. Compound 39B was dissolved in DMSO, diluted with RPMI-1640 to 10^3 μg/ml and tested at the following concentrations: 100, 10, 1, 0.1 and 0.01 μg/ml. Ten microlitres of cell suspension with different concentrations of compound 39B was added to each well of the center row of the three rows of wells. The same volume of LTB4 in RPMI-1640 medium or the medium alone was added to wells in the other rows and served as controls. After 5 h incubation (5% CO2, 37° C.) the test slides were fixed with 100% methanol (30 min) and dried at 4° C. (overnight). The slides were then examined microscopically. The migration index was defined as the average distances that cells migrated towards the positive LTB4 well divided by that of spontaneous migration. The percentage migration was compared between treatment and the non-drug control. The dose-effect relationship was determined by plotting the percentage chemotaxis vs concentration for IC50 values.

VEGF = VEGF protein expression of keratinocytes induced by rhTGF-α (ELISA); type: cell-based, human; settings: for VEGF: supernatant, rhTGF-α 100 ng/ml, 24 h
Method: Experiment: Compound 39B was dissolved in DMSO, diluted with keratinocyte-serum-free medium (KC-SFM) to 10^3 μg/ml, further diluted with the culture medium and tested at the following concentrations: 10, 1, 0.1 and 0.01 μg/ml. Prime cultures of keratinocytes were obtained from a commercial source and maintained with KC-SFM at a cell density of 10^6/ml. In the test, cells were cultured in 24-well plates and incubated at 37° C. in 5% CO2 first for 4 h, and then treated with rhTGF-α (final concentration 100 ng/ml) and the test compound at different concentrations (0.01-10 μg/ml). Medium without test compound was the negative control. The culture supernatant from each well was separately collected after an additional 24 h incubation and centrifuged at 2000 rpm for 5 minutes before measuring the VEGF concentration. VEGF concentration in the supernatant in each well was calculated based on measurements taken using an ELISA kit, according to the manufacturer's instructions.

TNF-α = assay: Endotoxemia mouse model, serum TNF-α after LPS; type: in vivo
Description: The in vivo endotoxemia model used in these studies represents a mouse showing the early inflammatory response. Such severe infection can be caused by Gram negative bacteria may lead to the development of septic shock. This toxicity is caused by the lipopolysaccharide (LPS) component of the bacterial cell wall, and injection of LPS into mice can mimic the physiological response typical of the septic shock syndrome. LPS-mediated toxicity is due to the release of cytokines such as TNF-α, IL-1 and IFN-γ by activated macrophages, and the degree of toxicity can be measured by the level of these cytokines in the blood.
Experiment: Test compounds were dissolved and formulated in 50% PEG-400 in water. Female Balb/c mice (˜20 g) were first injected separately intraperitoneally (IP) with 25 mg/kg of each test compound, then challenged by injection with 40 mg/kg lipopolysaccharide (LPS) (IP) 30 minutes later. One drug injection with 12.5 mg/kg of test compound was done at the same time as (LPS challenge and two subsequent sequential injections at 30 minutes intervals. Positive control of dexamethasone was administered in a similar manner starting at 0.4 mg/kg and subsequently 0.2 mg/kg for three additional injections. Mice were sacrificed and blood collected by cardiac puncture 150 minutes after LPS challenge. The serum TNF-α levels were determined by ELISA. Each test group was comprised of six mice. Group of mice injected with the vehicle alone was used as negative control.

CC(C)c1c(O)cc(/C=C/c2ccccc2)cc1O [Compound 9A, 3,5-Dihydroxy-4-isopropyl-trans-stilbene]
effect on psoriasis, volunteer 1 (scalp psoriasis) (psoriasis): completely clearance in 7 days | effect on psoriasis, volunteer 2 (plaques on back) (psoriasis): significant improvement of the psoriasis | effect on eczema, volunteer 3 (eczema): disease symptoms completely disappeared by week 2 | % edema inhibition (TPA-induced ear edema): 8% | macroscopic and microscopic diseases scores (DSS-induced IBD): significantly decreased | Bleeding score ([1]; 100 mg/kg oral daily): 3.3 ± 0.37 | Diarrheal score ([1]; 100 mg/kg oral daily): 2.0 ± 0.73 | Bleeding score ([1]; 200 mg/kg oral daily): 3.2 ± 0.49 | Diarrheal score ([1]; 200 mg/kg oral daily): 2.4 ± 0.45 | survival rate vs control treatment ([1]; 5% DSS, treatment from day 3): significantly higher survival rate | survival rate ([1]; daily oral treatment from day 3 post 5% DSS, vehicle control 33%): 67%

CC(C)c1c(O)cc(C=Cc2ccc(F)cc2)cc1O [Compound 39B]
IC50 (human PBMC): 7.36 µM | IC50 (IFN-γ): 4.16 µM | inhibition of migration of WBC towards LTB4 [2]: dose-dependent manner | % Migration ([2]; 0.32 μM): 88.46 ± 18.6% | % Migration ([2]; 1.6 μM): 83.85 ± 15.9% | % Migration ([2]; 8 μM): 58.46 ± 4.3% | % Migration ([2]; 40 μM): 13.07 ± 5.8% | VEGF (VEGF; 1.6 μM): 34.4 ± 2.0 pg/mL | VEGF (VEGF; 8 μM): 33.6 ± 1.8 pg/mL | decrease of VEGF protein concentration (VEGF; 40 μM, 24-h treatment): 100% | VEGF (VEGF; 40 μM): 0 ± 0 pg/mL | TNF-α levels in mice blood induced by LPS (TNF-α; P<0.05): decreased significantly | TNF-α (TNF-α; serum 150 min after LPS 40 mg/kg IP, compounds 25 mg/kg then 3 x 12.5 mg/kg IP (dexamethasone 0.4 then 3 x 0.2 mg/kg)): 601.6 ± 211.9 pg/mL | % edema inhibition (TPA-induced ear edema): 85% and 85.2% | macroscopic and microscopic diseases scores (DSS-induced IBD): significantly decreased
